In US20230081426A1, “COMPOUNDS AND METHODS FOR KRAS MODULATION AND INDICATIONS THEREFOR” (Plexxikon Inc., priority 2020, published 2023) one finds IC50 data, which are given here for 17 compounds.

The target in assay [1] is T1, G12D-mutant human KRAS (amino acid residues 1-188) (Homo sapiens, UniProt P01116, G12D).
T1 construct: G12D or G12C-mutant human KRAS (amino acid residues 1-188) with FLAG tag; made in house; host or cells: E. coli
Description: KRAS Binding Disruption Assay (AlphaScreen; biotinylated KRpep-2d analogue or RAF1-RBD), G12D. Conditions: KRAS G12D; geometric mean; read-out: KRAS GMean IC50 (uM) MUTATION: G12D. Summed up:
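Compounds are titrated against 5-20 nM mutant KRAS and 5-20 nM of either a biotinylated KRpep-2d analogue or RAF1-RBD, incubated 1 h at 25° C. Disruption is detected as reduced Alpha signal after 1 h with donor and acceptor beads at 10 μg/mL.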

In assay [2] the target is T2, G12V-mutant human KRAS (amino acid residues 1-188) (Homo sapiens, UniProt P01116, G12V).
T2 construct: G12V-mutant human KRAS (amino acid residues 1-188) with FLAG tag was purified from E. coli; made in house; host or cells: E. coli
Nature of the assay: KRAS Binding Competition Assay (AlphaScreen; biotinylated KRpep-2d analogue), G12V. The conditions noted are these: geometric mean, read-out: KRAS GMean IC50 (uM) MUTATION: G12V. In general terms: Alpha assays give light when donor and acceptor beads are brought close together.

One may read the IC50 as the concentration that inhibits the measured activity by half. On to `CN1CCC[C@H]1COc1nc(N2C[C@H]3CC[C@@H](C2)N3)c2cc(F)c(-c3c[nH]c4cccc(Cl)c34)c(F)c2n1` [P-0309, 4-((1R,5S)-3,8-diazabicyclo[3.2.1]octan-3-yl)-7-(4-chloro-1H-indol-3-yl)-6,8-difluoro-2-(((S)-1-methylpyrrolidin-2-yl)methoxy)quinazoline], for which the IC50 in assay [1] and in assay [2] was 10 to 100 µM in each case.
On to `CN1CCC[C@H]1COc1nc(N2C[C@H]3CC[C@@H](C2)N3)c2cc(F)c(-c3c[nH]c4ccc(Cl)cc34)c(F)c2n1` [P-0310, 4-((1R,5S)-3,8-diazabicyclo[3.2.1]octan-3-yl)-7-(5-chloro-1H-indol-3-yl)-6,8-difluoro-2-(((S)-1-methylpyrrolidin-2-yl)methoxy)quinazoline], for which the IC50 in assay [1] lay within 0.0001 to 10 µM; in assay [2] it was 10 to 100 µM.
With `CN1CCC[C@H]1COc1nc(N2[C@@H]3CC[C@H]2CN(C(=O)CC(C)(C)O)C3)c2ccc(-c3cc(O)cc4ccccc34)cc2n1` [P-0311, 3-hydroxy-1-((1R,5S)-8-(7-(3-hydroxynaphthalen-1-yl)-2-(((S)-1-methylpyrrolidin-2-yl)methoxy)quinazolin-4-yl)-3,8-diazabicyclo[3.2.1]octan-3-yl)-3-methylbutan-1-one], the half-maximal inhibitory concentration (IC50) in assay [1] and in assay [2] was 10 to 100 µM throughout.
`CN1CCC[C@H]1COc1nc(N2[C@@H]3CC[C@H]2CN(C(=O)Cc2n[nH]c4ccccc24)C3)c2ccc(-c3cc(O)cc4ccccc34)cc2n1` [P-0312, 1-((1R,5S)-8-(7-(3-hydroxynaphthalen-1-yl)-2-(((S)-1-methylpyrrolidin-2-yl)methoxy)quinazolin-4-yl)-3,8-diazabicyclo[3.2.1]octan-3-yl)-2-(1H-indazol-3-yl)ethan-1-one]: the IC50 in assay [1] and in assay [2] was 10 to 100 µM in each case.
As for `CN1CCC[C@H]1COc1nc(N2C[C@H]3CC[C@@H](C2)N3)c2ccc(-c3c[nH]c4ccc(C#N)cc34)c(F)c2n1` [P-0313, 3-(4-((1R,5S)-3,8-diazabicyclo[3.2.1]octan-3-yl)-8-fluoro-2-(((S)-1-methylpyrrolidin-2-yl)methoxy)quinazolin-7-yl)-1H-indole-5-carbonitrile], the results for the IC50 in assay [1] and in assay [2] were 10 to 100 µM and 100 to 1000 µM, respectively.
For `COc1ccc2[nH]cc(-c3ccc4c(N5C[C@H]6CC[C@@H](C5)N6)nc(OC[C@@H]5CCCN5C)nc4c3F)c2c1` [P-0314, 4-((1R,5S)-3,8-diazabicyclo[3.2.1]octan-3-yl)-8-fluoro-7-(5-methoxy-1H-indol-3-yl)-2-(((S)-1-methylpyrrolidin-2-yl)methoxy)quinazoline], the results for the IC50 in assay [1] and in assay [2] were 10 to 100 µM and 100 to 1000 µM, respectively.
Turning to `CN1CCC[C@H]1COc1nc(N2[C@@H]3CC[C@H]2CN(C(=O)CS(N)(=O)=O)C3)c2ccc(-c3cc(O)cc4ccccc34)cc2n1` [P-0315, 2-((1R,5S)-8-(7-(3-hydroxynaphthalen-1-yl)-2-(((S)-1-methylpyrrolidin-2-yl)methoxy)quinazolin-4-yl)-3,8-diazabicyclo[3.2.1]octan-3-yl)-2-oxoethane-1-sulfonamide], the IC50 in assay [1] and in assay [2] was 10 to 100 µM each time.
As for `CN1CCC[C@H]1COc1nc(N2[C@@H]3CC[C@H]2CN(C(=O)CNS(N)(=O)=O)C3)c2ccc(-c3cc(O)cc4ccccc34)cc2n1` [P-0316, N-(2-((1R,5S)-8-(7-(3-hydroxynaphthalen-1-yl)-2-(((S)-1-methylpyrrolidin-2-yl)methoxy)quinazolin-4-yl)-3,8-diazabicyclo[3.2.1]octan-3-yl)-2-oxoethyl)aminosulfonamide], the IC50 in assay [1] and in assay [2] was 10 to 100 µM throughout.
Regarding `CN1CCC[C@H]1COc1nc(N2[C@@H]3CC[C@H]2CN(C(=O)CNC(N)=O)C3)c2ccc(-c3cc(O)cc4ccccc34)cc2n1` [P-0317, 1-(2-((1R,5S)-8-(7-(3-hydroxynaphthalen-1-yl)-2-(((S)-1-methylpyrrolidin-2-yl)methoxy)quinazolin-4-yl)-3,8-diazabicyclo[3.2.1]octan-3-yl)-2-oxoethyl)urea], the IC50 in assay [1] and in assay [2] was 10 to 100 µM throughout.
Regarding `CN1CCC[C@H]1COc1nc(N2C[C@H]3CC[C@@H](C2)N3)c2cc(Cl)c(-c3c[nH]c4ccccc34)c(F)c2n1` [P-0318, 4-((1R,5S)-3,8-diazabicyclo[3.2.1]octan-3-yl)-6-chloro-8-fluoro-7-(1H-indol-3-yl)-2-(((S)-1-methylpyrrolidin-2-yl)methoxy)quinazoline], the IC50 in assay [1] was 0.0001 to 10 µM; in assay [2], 10 to 100 µM.
Consider `COc1ccc2[nH]cc(-c3c(Cl)cc4c(N5C[C@H]6CC[C@@H](C5)N6)nc(OC[C@@H]5CCCN5C)nc4c3F)c2c1` [P-0319, 4-((1R,5S)-3,8-diazabicyclo[3.2.1]octan-3-yl)-6-chloro-8-fluoro-7-(5-methoxy-1H-indol-3-yl)-2-(((S)-1-methylpyrrolidin-2-yl)methoxy)quinazoline], for which the IC50 in assay [1] was in the range of 0.0001 to 10 µM; in assay [2], 10 to 100 µM.
For the compound `CN(C)c1cccc(COc2nc(N3[C@@H]4CC[C@H]3CNC4)c3ccc(-c4cc(O)cc5ccccc45)cc3n2)c1` [P-0320, 4-(4-((1R,5S)-3,8-diazabicyclo[3.2.1]octan-8-yl)-2-((3-(dimethylamino)benzyl)oxy)quinaz-olin-7-yl)naphthalen-2-ol], the IC50 in assay [1] and in assay [2] was 0.0001 to 10 µM each time.
In the case of `Oc1cc(-c2ccc3c(N4[C@@H]5CC[C@H]4CNC5)nc(Oc4cccnc4)nc3c2)c2ccccc2c1` [P-0321, 4-(4-((1R,5S)-3,8-diazabicyclo[3.2.1]octan-8-yl)-2-(pyridin-3-yloxy)quinazolin-7-yl)naphthalen-2-ol], the IC50 in assay [1] and in assay [2] was 10 to 100 µM throughout.
Regarding `Oc1cc(-c2ccc3c(N4[C@@H]5CC[C@H]4CNC5)nc(Nc4cccnc4)nc3c2)c2ccccc2c1` [P-0322, 4-(4-((1R,5S)-3,8-diazabicyclo[3.2.1]octan-8-yl)-2-(pyridin-3-ylamino)quinazolin-7-yl)naphthalen-2-ol], the IC50 in assay [1] and in assay [2] was 10 to 100 µM throughout.
As to `CN1CCC[C@H]1COc1nc(N2C[C@H]3CC[C@@H](C2)N3)c2cc(Cl)c(-c3c[nH]c4ccc(Cl)cc34)c(F)c2n1` [P-0323, 4-((1R,5S)-3,8-diazabicyclo[3.2.1]octan-3-yl)-6-chloro-7-(5-chloro-1H-indol-3-yl)-8-fluoro-2-(((S)-1-methylpyrrolidin-2-yl)methoxy)quinazoline], the IC50 lay in the range of 0.0001 to 10 µM in assay [1] and 10 to 100 µM in assay [2].
For `CN1CCC[C@H]1COc1nc(N2[C@@H]3CC[C@H]2CN(C(=O)CC(=O)O)C3)c2ccc(-c3cc(O)cc4ccccc34)cc2n1` [P-0324, 3-((1R,5S)-8-(7-(3-hydroxynaphthalen-1-yl)-2-(((S)-1-methylpyrrolidin-2-yl)methoxy)quinazolin-4-yl)-3,8-diazabicyclo[3.2.1]octan-3-yl)-3-oxopropanoic acid], in that order: 100 to 1000 µM and 10 to 100 µM.
For `CN1CCC[C@H]1COc1nc(N2[C@@H]3CC[C@H]2CN(C(=O)CC#N)C3)c2ccc(-c3cc(O)cc4ccccc34)cc2n1` [P-0325, 3-((1R,5S)-8-(7-(3-hydroxynaphthalen-1-yl)-2-(((S)-1-methylpyrrolidin-2-yl)methoxy)quinazolin-4-yl)-3,8-diazabicyclo[3.2.1]octan-3-yl)-3-oxopropanenitrile], the IC50 is 10 to 100 µM in assay [1] and 0.0001 to 10 µM in assay [2].
